In US20230257372A1 (CHONG KUN DANG PHARMACEUTICAL CORP., priority 2020, published 2023):
Read-outs that look alike come from different tables or passages of the source.

Assays:
human recombinant HDAC1 = target: T1, human recombinant HDAC1 (Homo sapiens, UniProt Q13547); assay: HDAC1 enzyme activity inhibition (HDAC Fluorimetric Drug Discovery Kit); type: biochemical; details: read-out: HDAC1
T1 construct: purchased Enzo Life Science, Inc. BML-SE456
How it was run: (§1)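 Each isoform is run in the same format: compound dilutions (5-fold steps), 10 μM substrate, […] enzyme, one hour at 30° C, then 30 minutes with developer before fluorescence readout.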

human recombinant HDAC6 = target: T2, human recombinant HDAC6 (Homo sapiens, UniProt Q9UBN7); assay: HDAC6 enzyme activity inhibition (HDAC Fluorimetric Drug Discovery Kit); type: biochemical
T2 construct: purchased Calbiochem Inc. 382180
T2 sequence (Q9UBN7 1-1215): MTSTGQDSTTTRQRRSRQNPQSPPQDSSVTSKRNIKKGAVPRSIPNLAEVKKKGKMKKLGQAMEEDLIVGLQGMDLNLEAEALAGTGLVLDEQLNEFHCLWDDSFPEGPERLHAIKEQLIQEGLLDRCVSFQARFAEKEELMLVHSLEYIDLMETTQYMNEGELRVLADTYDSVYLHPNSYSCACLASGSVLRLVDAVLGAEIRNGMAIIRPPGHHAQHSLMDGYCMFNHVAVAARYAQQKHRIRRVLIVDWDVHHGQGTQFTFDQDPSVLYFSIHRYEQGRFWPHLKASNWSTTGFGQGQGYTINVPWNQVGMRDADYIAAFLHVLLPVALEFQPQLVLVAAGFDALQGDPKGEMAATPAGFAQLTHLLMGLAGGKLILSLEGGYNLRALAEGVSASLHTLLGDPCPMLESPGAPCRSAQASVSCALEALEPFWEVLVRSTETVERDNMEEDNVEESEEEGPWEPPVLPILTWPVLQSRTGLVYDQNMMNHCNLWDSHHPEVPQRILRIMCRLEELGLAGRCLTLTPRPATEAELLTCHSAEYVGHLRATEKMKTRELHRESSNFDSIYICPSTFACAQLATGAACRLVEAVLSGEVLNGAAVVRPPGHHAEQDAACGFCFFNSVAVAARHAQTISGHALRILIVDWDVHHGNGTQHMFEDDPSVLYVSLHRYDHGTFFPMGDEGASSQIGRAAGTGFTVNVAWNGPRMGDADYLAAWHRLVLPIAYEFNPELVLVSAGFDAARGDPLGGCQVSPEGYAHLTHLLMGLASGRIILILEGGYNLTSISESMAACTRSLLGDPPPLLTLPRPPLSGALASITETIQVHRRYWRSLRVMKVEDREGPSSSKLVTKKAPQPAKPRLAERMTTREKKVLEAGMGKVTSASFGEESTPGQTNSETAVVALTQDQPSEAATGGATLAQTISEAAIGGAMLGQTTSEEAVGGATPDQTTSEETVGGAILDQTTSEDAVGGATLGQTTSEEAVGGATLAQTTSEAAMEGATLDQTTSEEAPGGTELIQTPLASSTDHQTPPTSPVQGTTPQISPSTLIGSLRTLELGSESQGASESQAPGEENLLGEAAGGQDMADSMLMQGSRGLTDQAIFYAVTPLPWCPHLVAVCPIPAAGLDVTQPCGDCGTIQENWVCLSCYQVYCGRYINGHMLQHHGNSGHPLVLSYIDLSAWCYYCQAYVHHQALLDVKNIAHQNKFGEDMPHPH
How it was run: as §1

[1] = human recombinant HDAC1, IC50 calculated with GraphPad Prism
[2] = human recombinant HDAC6, IC50 calculated with GraphPad Prism
[3] = human recombinant HDAC1, Fluor de Lys substrate, 30° C. 60 minutes
[4] = human recombinant HDAC6, same protocol as HDAC1

T1 sequence (Q13547 whole entry): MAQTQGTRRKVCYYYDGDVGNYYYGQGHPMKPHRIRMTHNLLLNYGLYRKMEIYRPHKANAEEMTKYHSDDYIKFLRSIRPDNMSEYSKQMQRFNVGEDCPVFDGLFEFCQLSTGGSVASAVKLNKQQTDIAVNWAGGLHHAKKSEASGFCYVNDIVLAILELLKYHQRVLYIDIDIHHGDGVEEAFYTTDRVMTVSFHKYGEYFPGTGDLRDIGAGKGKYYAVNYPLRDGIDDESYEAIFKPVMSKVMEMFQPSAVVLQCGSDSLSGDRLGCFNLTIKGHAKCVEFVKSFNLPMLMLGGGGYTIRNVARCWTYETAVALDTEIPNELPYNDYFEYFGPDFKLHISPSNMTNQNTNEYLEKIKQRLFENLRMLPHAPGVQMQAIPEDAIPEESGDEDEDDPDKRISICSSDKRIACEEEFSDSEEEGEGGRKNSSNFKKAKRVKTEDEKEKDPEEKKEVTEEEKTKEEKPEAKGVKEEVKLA

Structure (SMILES)	IC50 (human recombinant HDAC1; [1]) [nM]	HDAC6 selectivity (fold) (human recombinant HDAC6; HDAC1 IC50 / HDAC6 IC50)	IC50 (human recombinant HDAC6; [2]) [nM]	IC50 (human recombinant HDAC1; [3]) [nM]	HDAC6 selectivity (fold) (human recombinant HDAC6; HDAC6 over HDAC1)	IC50 (human recombinant HDAC6; [4]) [nM]
Fc1cc(-c2nnc(C(F)F)o2)ccc1Cn1cc(C2(F)COC2)nn1 [Compound 4282, 2-(difluoromethyl)-5-(3-fluoro-4-((4-(3-fluorooxetan-3-yl)-1H-1,2,3-triazol-1-yl)methyl)phenyl)-1,3,4-oxadiazole]	> 50000	209	238	–	–	–
FC(F)c1nnc(-c2ccc(Cn3cc(C4(F)CCN(C5COC5)CC4)nn3)nc2)o1 [Compound 4008, 2-(difluoromethyl)-5-(6-((4-(4-fluoro-1-(oxetan-3-yl)piperidin-4-yl)-1H-1,2,3-triazol-1-yl)methyl)pyridin-3-yl)-1,3,4-oxadiazole]	> 50000	408	122	–	–	–
FC(F)c1nnc(-c2ccc(Cn3cc(-c4cccc(N5CCN(C6COC6)CC5)c4)nn3)nc2)o1 [Compound 3989, 2-(difluoromethyl)-5-(6-((4-(3-(4-(oxetan-3-yl)piperazin-1-yl)phenyl)-1H-1,2,3-triazol-1-yl)methyl)pyridin-3-yl)-1,3,4-oxadiazole]	> 50000	1597	31.3	–	–	–
FC(F)c1nnc(-c2ccc(Cn3cc(-c4cccc5c4CN(C4COC4)C5)nn3)cc2)o1 [Compound 4533, 2-(difluoromethyl)-5-(4-((4-(2-(oxetan-3-yl)isoindolin-4-yl)-1H-1,2,3-triazol-1-yl)methyl)phenyl)-1,3,4-oxadiazole]	–	–	–	> 50000	318	157
CN1CCC(c2cn(Cc3ccc(-c4nnc(C(F)F)o4)cn3)nn2)CC1 [Compound 3806, 2-(difluoromethyl)-5-(6-((4-(1-methylpiperidin-4-yl)-1H-1,2,3-triazol-1-yl)methyl)pyridin-3-yl)-1,3,4-oxadiazole]	> 50000	134	372	–	–	–
Fc1cc(-c2nnc(C(F)F)o2)cnc1Cn1cc(-c2cccc(CN3CCCC3)c2Cl)nn1 [Compound 19089]	–	–	–	> 50000	665	75.1
Fc1c(-c2cn(Cc3ccc(-c4nnc(C(F)F)o4)cn3)nn2)cccc1N1CCN(CC2CC(F)(F)C2)CC1 [Compound 4601, 2-(6-((4-(3-(4-((3,3-difluorocyclobutyl)methyl)piperazin-1-yl)-2-fluorophenyl)-1H-1,2,3-triazol-1-yl)methyl)pyridin-3-yl)-5-(difluoromethyl)-1,3,4-oxadiazole]	–	–	–	> 50000	1392	35.9
CN1CCN(C(=O)c2cccc(-c3cn(Cc4ccc(-c5nnc(C(F)F)o5)cn4)nn3)c2)CC1 [Compound 3887, (3-(1-((5-(5-(difluoromethyl)-1,3,4-oxadiazol-2-yl)pyridin-2-yl)methyl)-1H-1,2,3-triazol-4-yl)phenyl)(4-methylpiperazin-1-yl)methanone]	> 50000	875	57.1	–	–	–
CN(C)Cc1cccc(-c2cn(Cc3ncc(-c4nnc(C(F)F)o4)cc3F)nn2)c1 [Compound 18457, 1-(3-(1-((5-(5-(difluoromethyl)-1,3,4-oxadiazol-2-yl)-3-fluoropyridin-2-yl)methyl)-1H-1,2,3-triazol-4-yl)phenyl)-N,N-dimethylmethanamine]	–	–	–	> 50000	554	90.1
CC(C)(C)OC(=O)N1CCC(F)(c2cn(Cc3ccc(-c4nnc(C(F)F)o4)cn3)nn2)CC1 [Compound 3999, Tert-butyl 4-(1-((5-(5-(difluoromethyl)-1,3,4-oxadiazol-2-yl)pyridin-2-yl)methyl)-1H-1,2,3-triazol-4-yl)-4-fluoropiperidin-1-carboxylate]	> 50000	575	86.9	–	–	–

Next, values leading:

IC50 (human recombinant HDAC1; [1]) [nM]	HDAC6 selectivity (fold) (human recombinant HDAC6; HDAC1 IC50 / HDAC6 IC50)	IC50 (human recombinant HDAC6; [2]) [nM]	IC50 (human recombinant HDAC1; [3]) [nM]	HDAC6 selectivity (fold) (human recombinant HDAC6; HDAC6 over HDAC1)	IC50 (human recombinant HDAC6; [4]) [nM]	Structure (SMILES)
> 50000	96	519	–	–	–	FC(F)c1nnc(-c2ccc(Cn3cc(-c4cccc(CN5CCC5)c4)nn3)cc2)o1 [Compound 4409, 2-(4-((4-(3-(azetidin-1-ylmethyl)phenyl)-1H-1,2,3-triazol-1-yl)methyl)phenyl)-5-(difluoromethyl)-1,3,4-oxadiazole]
> 50000	500	244	–	–	–	CC(C)(C)OC(=O)N1CCC(c2cn(Cc3ccc(-c4nnc(C(F)F)o4)cc3F)nn2)C1 (stereo not drawn) [Compound 3734, Tert-butyl 3-(1-(4-(5-(difluoromethyl)-1,3,4-oxadiazol-2-yl)-2-fluorobenzyl)-1H-1,2,3-triazol-4-yl)pyrrolidin-1-carboxylate]
> 50000	2008	24.9	–	–	–	Fc1cc(-c2nnc(C(F)F)o2)ccc1Cn1cc(-c2ccc(CNC3CCC(F)(F)CC3)cc2)nn1 [Compound 4477, N-(4-(1-(4-(5-(difluoromethyl)-1,3,4-oxadiazol-2-yl)-2-fluorobenzyl)-1H-1,2,3-triazol-4-yl)benzyl)-4,4-difluorocyclohexan-1-amine]
> 50000	967	51.7	–	–	–	CC(C)N1CCC(c2cccc(-c3cn(Cc4ccc(-c5nnc(C(F)F)o5)cc4F)nn3)c2)CC1 [Compound 4292, 2-(difluoromethyl)-5-(3-fluoro-4-((4-(3-(1-isopropylpiperidin-4-yl)phenyl)-1H-1,2,3-triazol-1-yl)methyl)phenyl)-1,3,4-oxadiazole]
–	–	–	> 50000	1377	36.3	Fc1cc(-c2nnc(C(F)F)o2)ccc1Cn1cc(-c2cccc(N3CCN(C4COC4)CC3)n2)nn1 [Compound 17365, 2-(difluoromethyl)-5-(3-fluoro-4-((4-(6-(4-(oxetan-3-yl)piperazin-1-yl)pyridin-2-yl)-1H-1,2,3-triazol-1-yl)methyl)phenyl)-1,3,4-oxadiazole]
–	–	–	> 50000	229	218	CCN1CCN(Cc2ccccc2-c2cn(Cc3ccc(-c4nnc(C(F)F)o4)cc3F)nn2)CC1 [Compound 4588, 2-(difluoromethyl)-5-(4-((4-(2-((4-ethylpiperazin-1-yl)methyl)phenyl)-1H-1,2,3-triazol-1-yl)methyl)-3-fluorophenyl)-1,3,4-oxadiazole]
–	–	–	> 50000	2074	24.1	CCN1CCN(c2cc(-c3cn(Cc4ccc(-c5nnc(C(F)F)o5)cc4F)nn3)ccn2)CC1 [Compound 4634, 2-(difluoromethyl)-5-(4-((4-(2-(4-ethylpiperazin-1-yl)pyridin-4-yl)-1H-1,2,3-triazol-1-yl)methyl)-3-fluorophenyl)-1,3,4-oxadiazole]
> 50000	320	156	–	–	–	CC(C)(C)OC(=O)N1CCC(c2cn(Cc3ccc(-c4nnc(C(F)F)o4)cc3F)nn2)CC1 [Compound 3735, Tert-butyl 4-(1-(4-(5-(difluoromethyl)-1,3,4-oxadiazol-2-yl)-2-fluorobenzyl)-1H-1,2,3-triazol-4-yl)piperidin-1-carboxylate]
> 50000	837	59.7	–	–	–	Fc1cc(-c2nnc(C(F)F)o2)ccc1Cn1cc(-c2cccc(CN3CCOCC3)c2)nn1 [Compound 4404, 4-(3-(1-(4-(5-(difluoromethyl)-1,3,4-oxadiazol-2-yl)-2-fluorobenzyl)-1H-1,2,3-triazol-4-yl)benzyl)morpholine]
> 50000	1210	41.3	–	–	–	Fc1cc(-c2nnc(C(F)F)o2)ccc1Cn1cc(-c2ccc3c(c2)CN(C2COC2)CC3)nn1 [Compound 4367, 2-(difluoromethyl)-5-(3-fluoro-4-((4-(2-(oxetan-3-yl)-1,2,3,4-tetrahydroisoquinolin-7-yl)-1H-1,2,3-triazol-1-yl)methyl)phenyl)-1,3,4-oxadiazole]
